The record followed here is the supplement of paper PMC12325586.

This test deals with MIA PaCa-2. How it is done: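 MIA PaCa-2 Tet-on shOFD1 pancreatic cancer cells (2000 cells/well, 96-well) were treated with Selleck FDA-approved library compounds at 0, 1, 5, 10, 25 and 50 µM, with extra concentrations added where needed, for 72 h at 37 °C. Knockdown wells also received 100 ng/mL doxycycline; control wells received DMSO without doxycycline. Viability was read by CCK-8 absorbance at 450 nm and normalised to DMSO control wells. IC50 was fitted in GraphPad Prism as a 4-parameter logistic with bottom fixed at 0 and top fixed at 1; at least 3 technical replicate wells per condition.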

The mark [1] stands for this setting: OFD1 knockdown: no (no doxycycline).
The mark [2] stands for this setting: OFD1 knockdown: yes (Tet-on shOFD1, 100 ng/mL doxycycline).

As to `COCCCOc1cc(C[C@@H](C[C@H](N)[C@@H](O)C[C@H](C(=O)NCC(C)(C)C(N)=O)C(C)C)C(C)C)ccc1OC` [S2199], the IC50 cell viability was 4.3 µM under setting [1] and 3.52 µM under setting [2].
On the same counts, the results for `CC[C@@H]1C(=O)N(C)c2cnc(Nc3ccc(C(=O)N[C@H]4CC[C@H](N5CCN(CC6CC6)CC5)CC4)cc3OC)nc2N1C(C)C` [S2235] are 13.3 µM and 12.1 µM.
With `CC1(C)O[C@@H]2C[C@H]3[C@@H]4CCC5=CC(=O)C=C[C@]5(C)[C@@]4(F)[C@@H](O)C[C@]3(C)[C@]2(C(=O)CO)O1` [S1628], the IC50 cell viability reads like this: under setting [1], 23 µM; under setting [2], 22.1 µM.
For `CCCCc1nc2cc(/C=C/C(=O)NO)ccc2n1CCN(CC)CC` [S1515], in that order: 5.47 µM and 5.05 µM.
With `Cn1cc(CNCC2CCN(c3ncc(C(=O)NO)cn3)CC2)c2ccccc21` [S1096], the IC50 cell viability runs as follows: under setting [1], 0.41 µM; under setting [2], 0.39 µM.
Consider `C[C@H]1C[C@H]2[C@@H]3CCC4=CC(=O)C=C[C@]4(C)[C@H]3C(=O)C[C@]2(C)[C@@]1(O)C(=O)CO` [S1689], for which the IC50 cell viability was 17.6 µM under setting [1] and 16.8 µM under setting [2].
For `S=c1[nH]cnc2nc[nH]c12` [S1305], in that order: 27.5 µM and 27.7 µM.
On the same counts, the results for `CO[C@H]1C[C@@H]2CC[C@@H](C)[C@@](O)(O2)C(=O)C(=O)N2CCCC[C@H]2C(=O)O[C@H]([C@H](C)C[C@@H]2CC[C@@H](OC(=O)C(C)(CO)CO)[C@H](OC)C2)CC(=O)[C@H](C)/C=C(\C)[C@@H](O)[C@@H](OC)C(=O)[C@H](C)C[C@H](C)/C=C/C=C/C=C/1C` [S1044] are 27 µM and 24 µM.
Regarding `CC1=C(/C=C/C(C)=C/C=C/C(C)=C/C(=O)O)C(C)(C)CCC1` [S1653], the IC50 cell viability by setting is: under setting [1], 13.6 µM; under setting [2], 14.3 µM.
Regarding `N#CC[C@H](C1CCCC1)n1cc(-c2ncnc3[nH]ccc23)cn1` [S2902], the IC50 cell viability reads like this: under setting [1], 19.6 µM; under setting [2], 17.9 µM.
For `O=P1(NCCCl)OCCCN1CCCl` (centres undefined) [S1302], in that order: 53 µM and 55.2 µM.
In the case of `CNC(=O)c1ccc(N2C(=S)N(c3ccc(C#N)c(C(F)(F)F)c3)C(=O)C2(C)C)cc1F` [S1250], the IC50 cell viability came to 29.5 µM under setting [1] and 27.8 µM under setting [2].
For `O=P1(N(CCCl)CCCl)NCCCO1` (centres undefined) [S2057], in that order: 20.3 µM and 18.6 µM.
Take `Cc1ccc([C@@H]2O[C@H](CO)[C@@H](O)[C@H](O)[C@H]2O)cc1Cc1ccc(-c2ccc(F)cc2)s1` [S2760]: the IC50 cell viability under setting [1] is 21.9 µM and the IC50 cell viability under setting [2] is 21.6 µM.
On the same counts, the results for `Clc1ccc(Nc2nnc(Cc3ccncc3)c3ccccc23)cc1` [S1101] are 30.8 µM and 24.3 µM.
Turning to `O=S(=O)(O)CCSSCCS(=O)(=O)O` [S1201], the IC50 cell viability is 82.1 µM under setting [1] and 70.3 µM under setting [2].
Regarding `COc1cc2nc(N3CCN(C(=O)C4COc5ccccc5O4)CC3)nc(N)c2cc1OC` (centres undefined) [S1324], the IC50 cell viability by setting is: under setting [1], 18.1 µM; under setting [2], 17.6 µM.
On the same counts, the results for `CC(C)OC(=O)C(C(=O)OC(C)C)=C1SC=CS1` [S1137] are 38.1 µM and 36.1 µM.
For `CS(=O)(=O)N1CCN(Cc2cc3nc(-c4cccc5[nH]ncc45)nc(N4CCOCC4)c3s2)CC1` [S1065], in that order: 10.2 µM and 7.9 µM.
As for `COc1cc2/c(=N/c3ccc(Br)cc3F)nc[nH]c2cc1OCC1CCN(C)CC1` [S1046], the IC50 cell viability under setting [1] was 5.87 µM and the IC50 cell viability under setting [2] amounted to 5.04 µM.
For `O=C1CCC(N2C(=O)c3ccccc3C2=O)C(=O)N1` (centres undefined) [S1193], in that order: 29.9 µM and 28.2 µM.
On the same counts, the results for `CCOc1nc2cccc(C(=O)O)c2n1Cc1ccc(-c2ccccc2-c2nnn[nH]2)cc1` [S1578] are 1.56 µM and 1.3 µM.
For `CCC(C)(C)C(=O)O[C@H]1C[C@@H](C)C=C2C=C[C@H](C)[C@H](CC[C@@H]3C[C@@H](O)CC(=O)O3)[C@H]21` [S1792], in that order: 26.2 µM and 25 µM.
For `Nc1ncn([C@H]2C[C@H](O)[C@@H](CO)O2)c(=O)n1` [S1200], the IC50 cell viability under setting [1] came out at 74.8 µM and the IC50 cell viability under setting [2] worked out at 77.2 µM.
Consider `Cc1c(N)nc(C(CC(N)=O)NCC(N)C(N)=O)nc1C(=O)NC(C(=O)NC(C)C(O)C(C)C(=O)NC(C(=O)NCCc1nc(-c2nc(C(=O)NCCC[S+](C)C)cs2)cs1)C(C)O)C(O[C@@H]1O[C@@H](CO)[C@@H](O)[C@H](O)[C@@H]1O[C@H]1O[C@H](CO)[C@@H](O)[C@H](OC(N)=O)[C@@H]1O)c1cnc[nH]1` (some centres undefined) [S1214], for which the IC50 cell viability reads like this: under setting [1], 1.84 µM; under setting [2], 1.69 µM.
For `CS(=O)(=O)c1ccc(C(=O)Nc2ccc(Cl)c(-c3ccccn3)c2)c(Cl)c1` [S1082], in that order: 61.8 µM and 69 µM.
The compound `COc1ccc(-c2nc3cc(C4=NNC(=O)CC4C)ccc3[nH]2)cc1` (centres undefined) [S1550] showed an IC50 cell viability under setting [1] of 26.3 µM and an IC50 cell viability under setting [2] of 28.8 µM.
For `Nc1ccc(C(=O)O)c(O)c1` [S4073], in that order: 8.25 µM and 7.73 µM.
For `C[C@]12CC[C@@H]3c4ccc(O)cc4CC[C@H]3[C@@H]1CC[C@@H]2O` [S1709], in that order: 18 µM and 18.8 µM.
For `COc1c(C)c2c(c(O)c1C/C=C(\C)CCC(=O)OCCN1CCOCC1)C(=O)OC2` [S1501], in that order: 11.9 µM and 11.5 µM.
For the compound `CC(C)(C#N)c1cc(Cn2cncn2)cc(C(C)(C)C#N)c1` [S1188], the IC50 cell viability came out at 47.1 µM under setting [1] and 59.2 µM under setting [2].
On the same counts, the results for `Cc1ccc(-n2nc(C(C)(C)C)cc2NC(=O)Nc2ccc(OCCN3CCOCC3)c3ccccc23)cc1` [S1574] are 77.2 µM and 83.8 µM.
On the same counts, the results for `Cc1cccc(C)c1NC1=NCCCS1` [S2516] are 15.3 µM and 14.1 µM.
For `CN1CCN(C2=Nc3cc(Cl)ccc3Nc3ccccc32)CC1` [S2459], in that order: 18.9 µM and 18 µM.
In the case of `COc1cc2ncnc(Nc3ccc(F)c(Cl)c3)c2cc1OCCCN1CCOCC1` [S1025], the IC50 cell viability reads like this: under setting [1], 2.22 µM; under setting [2], 1.71 µM.
For `CC(=O)OCC(=O)[C@@]1(O)[C@H](C)C[C@H]2[C@@H]3CCC4=CC(=O)C=C[C@]4(C)[C@@]3(F)[C@@H](O)C[C@@]21C` [S3124], the IC50 cell viability reads like this: under setting [1], 51.2 µM; under setting [2], 49.6 µM.
For `O=C(/C=C/c1cccc(S(=O)(=O)Nc2ccccc2)c1)NO` [S1085], in that order: 3.67 µM and 3.5 µM.
Regarding `CN(N=O)C(=O)NC1C(O)OC(CO)C(O)C1O` (centres undefined) [S1312], the IC50 cell viability came out at 30.1 µM under setting [1] and 30.4 µM under setting [2].
For `C[C@@H](Oc1cc(-c2cnn(C3CCNCC3)c2)cnc1N)c1c(Cl)ccc(F)c1Cl` [S1068], in that order: 1.73 µM and 1.39 µM.
For `CS(=O)(=O)OCCCCOS(C)(=O)=O` [S1692], in that order: 11.6 µM and 12.1 µM.
For `COc1cc([C@@H]2c3cc4c(cc3[C@@H](O[C@@H]3O[C@@H]5CO[C@@H](c6cccs6)O[C@H]5[C@H](O)[C@H]3O)[C@H]3COC(=O)[C@H]23)OCO4)cc(OC)c1O` [S1787], in that order: 0.62 µM and 0.59 µM.
As to `O=C1CN2Cc3c(ccc(Cl)c3Cl)N=C2N1` [S3172], the IC50 cell viability is, setting by setting: under setting [1], 8.82 µM; under setting [2], 8.26 µM.
`Nc1ncn([C@@H]2O[C@H](CO)[C@@H](O)[C@H]2O)c(=O)n1` [S1782]: the IC50 cell viability runs as follows: under setting [1], 12.6 µM; under setting [2], 10.7 µM.
Consider `C[C@]12CC[C@@H]3c4ccc(O)cc4C[C@@H](CCCCCCCCC[S+]([O-])CCCC(F)(F)C(F)(F)F)[C@H]3[C@@H]1CC[C@@H]2O` (some centres undefined) [S1191], for which the IC50 cell viability was 25.6 µM under setting [1] and 24.5 µM under setting [2].
On the same counts, the results for `CC[C@H](Nc1ncnc2[nH]cnc12)c1nc2cccc(F)c2c(=O)n1-c1ccccc1` [S2226] are 22.7 µM and 24.4 µM.
For `COc1nc(C)cnc1NS(=O)(=O)c1cccnc1-c1ccc(-c2nnco2)cc1` [S1456], in that order: 70.2 µM and 64.3 µM.
For `C[C@]12CC[C@@H]3c4ccc(O)cc4CC[C@H]3[C@@H]1CCC2=O` [S1665], in that order: 38.1 µM and 37.8 µM.
`C=CC(=O)Nc1cc(Nc2nccc(-c3cn(C)c4ccccc34)n2)c(OC)cc1N(C)CCN(C)C` [S7297]: the IC50 cell viability was found to be 11.4 µM under setting [1] and 9.5 µM under setting [2].
For `CCc1c2c(nc3ccc(OC(=O)N4CCC(N5CCCCC5)CC4)cc13)-c1cc3c(c(=O)n1C2)COC(=O)[C@]3(O)CC` [S1198], in that order: 24.5 µM and 20 µM.
For `O=NN(CCCl)C(=O)NC1CCCCC1` [S1840], in that order: 18.8 µM and 16.9 µM.
On the same counts, the results for `CNC(=O)c1cc(Oc2ccc(NC(=O)Nc3ccc(Cl)c(C(F)(F)F)c3)c(F)c2)ccn1` [S1178] are 1.56 µM and 1.28 µM.
For the compound `O=c1[nH]c(=O)n(C2CCCO2)cc1F` (centres undefined) [S1300], the IC50 cell viability by setting is: under setting [1], 48.4 µM; under setting [2], 43.1 µM.
